Reference: patent US7893070B2, “Method of treating parturient placental mammals in order to reduce maternal and/or uterine exhaustion” (priority 2005, dated 2011)

Legend:
[1] = Transfer of caffeine from the mother to piglets (blood at birth) and colostrum; format: in vivo, swine; conditions: 900 mg oral paste to sow; same time-point
From the text: In order to assess whether caffeine was transferred from the mother to the piglets, blood samples were collected from several piglets at the time of birth and samples from colostrum were taken. […] The concentrations found were dependent on the time relative to dosing the treatment composition. For piglets at birth, they were roughly ¼^th the concentration in the mother at that time-point, and in milk they were roughly ⅙^th the concentration in the mother at that time-point. Values observed were in the range of 0.1 to 1.5 mg/L.

[2] = system: sows; assay: 900 mg caffeine oral paste, Velddriel research station; stillbirth and piglet mortality; format: in vivo, swine; conditions: 900 mg oral paste
Procedure: The method of treatment according to the present invention was further tested at the Provimi research station in Velddriel, the Netherlands, in three farrowing groups. In the Velddriel facility farrowings are not attended by (veterinary) personnel and parturition is thus not actively managed. Stillbirth and mortality rates are thus in line with commercial practices.
Sows were assigned to treatment based on parity. Overall, 27 sows served as controls and 29 were treated in accordance with the present invention when they were expected to farrow in the next 8 hours. Treated sows were administered 900 mg of caffeine comprised in a paste for oral ingestion, in accordance with the invention.

[3] = system: sows; assay: Caffeine suppository to sows after birth of first piglet; indices of piglet health and birth interval; format: in vivo, swine
From the text: In commercial swine production, typically 8% of the fetuses are stillborn, and 12% of the newborn piglets die prior to weaning (SIVA, 2005). Oxygen deprivation during the birth process is an important causal factor for both stillbirths and neonatal mortality. An indicator for oxygen deprivation is umbilical (blood) pH. This pH is typically 7.4, but upon oxygen deprivation CO2 accumulates in the blood and tissues resulting in a drop in pH. If this drop is severe enough, it will result in the death of the fetus. A moderate drop in pH may not be lethal but may inflict sufficient metabolic damage such that it affects the health and fitness of the newborn and thus its chances of survival. Measurements of umbilical (blood) pH confirmed that this pH drops as the length of parturition increases. Previous work by Randall (1971) has shown a good correlation between umbilical pH and livability of piglets (FIG. 1).
Infrared radiation temperature is another indicator of metabolic health of a mammal. A strong correlation between infrared temperature and survival chances for newborn pigs has been shown. This infrared temperature was obtained by collecting piglets at birth, immediately drying them, and measuring infrared temperature. In a first experiment, 7 sows received a caffeine-comprising suppository (1-2 mg/kg BW, or 400-600 mg) after the birth of the first piglet in a litter. The indices of piglet health as described here above were compared to those of a control group of 6 sows. […] (P=0.04).

[4] = system: sows; assay: 900 mg caffeine oral paste, actively managed farm in Bieganow; format: in vivo, swine; conditions: for increase in feed consumption of sows: vs control
Procedure: The method of treatment according to the present invention was further tested at a well-managed farm in Bieganow, Poland. In this facility farrowings are attended by (veterinary) personnel and parturition is actively managed. As a result, stillbirth rates are extremely low (0.33 piglets per litter or 3% of the piglets).
At this farm, 89 sows comprising one farrowing group were available for the test. These sows were assigned to receive either a 900 mg of caffeine containing paste in accordance with the invention or no treatment, based on parity, body condition, and historical performance. The treatment composition was administered orally to selected sows when they were expected to farrow in the next 8 hours.

[5] = system: sows; assay: 400 mg caffeine oral paste to sows after birth of first piglet; duration of parturition; format: in vivo, swine; conditions: 400 mg oral paste; controls 159 minutes
Procedure: In a second experiment, 19 sows received 400 mg of caffeine comprised in a paste for oral ingestion, in accordance with the invention, after the birth of the first piglet while 19 sows served as untreated controls.
Practically, some untreated animals delivered their litter expediently and with few problems, but there were a substantial number of mothers for whom parturition became a lengthy process.

[6] = Uptake of caffeine into blood (serum) of pregnant sows
Procedure: Blood samples were collected pre-administration and at multiple time points post administration through an ear-vein catheter such that the uptake of caffeine into the blood (serum) could be modelled. Besides the caffeine level, the levels of its main metabolites paraxanthine, theophylline, and theobromine were determined.
This pool was not modelled.

[7] = system: sows; conditions: intravenous injection of 0.5 mg/50 kg bodyweight, cited from earlier work

Compound | caffeine concentration in milk relative to the concentration in the mother [1] | caffeine concentration in piglets at birth relative to the concentration in the mother [1] | stillborn piglets per litter ([2]; expected to farrow in next 8 hours, control 0.89) [piglets per litter] | piglets died or euthanized for being weak after parturition ([2]; control 1.15) [piglets per litter] | increase of piglet umbilical (blood) pH ([3]; suppository 1-2 mg/kg BW (400-600 mg) vs control sows, P=0.03) [units] | increase of piglet infrared radiation temperature ([3]; suppository 1-2 mg/kg BW (400-600 mg) vs control sows, P=0.04) [°C] | numerical increase of birth interval between subsequent piglets ([3]; suppository, P=0.11 (control 9 minutes, P<0.01)) | difference in stillbirths between treatment groups ([4]; 900 mg oral paste vs no treatment) | assistance rate ([4]; 900 mg oral paste, control group 26%) [%] | sows requiring medical care post-farrowing ([4]; 900 mg oral paste, control group seven sows (one died)) | increase in feed consumption of sows ([4]; first day post farrowing) [%] | increase in feed consumption of sows ([4]; first five days post farrowing) [%] | piglets heavier than controls at weaning ([4]; piglets from treated sows) [%] | mean time interval between the birth of the first and 10th piglet [5] [min] | half-life ([6]; female, pig, in vivo) [h] | peak blood concentration, second compartment ([6]; pregnant sows, 940 mg of caffeine administered (half that for the 470 mg dose)) [µM] | time of peak blood concentration, second compartment ([6]; pregnant sows, post administration) [h] | bio-availability ([6]; pregnant sows, assuming caffeine distributed in 60% of body mass) [%] | stillbirth rate ([7]; reduced from 8.3) [%] | rate of deliveries lasting more than six hours ([7]; reduced from 14.5) [%]
Cn1c(=O)c2c(ncn2C)n(C)c1=O [caffeine] | roughly ⅙ | roughly ¼ | 0.31 | 0.48 | 0.044±0.020 | 0.60±0.29 | 3.6 minutes for each hour into parturition | no statistically significant differences | 18 | no sows required medical care | 14 | 10 | 9 | 110 | ~22 | ~5 | 8 | 44 | – | –
CC(C)NCC(O)COc1cccc2[nH]c3ccccc3c12 (centres unmarked) [carazolol] | – | – | – | – | – | – | – | – | – | – | – | – | – | – | – | – | – | – | 7.1 | 11.0
